The values that follow come from publication PMC4767442 (Oncotarget, 2015).

SMILES strings stand for the structures.

Data set [1] deals with HL-60 human promyelocytic leukemia cell line. Briefly: MTT proliferation/viability assay, HL-60. Type of data set: cell-based. To be noted: 72 h/37°C, mean ± S.D. Here is the method: (§1) The MCF-7 human breast adenocarcinoma cell line was purchased from the European Collection of Cell Cultures (U.K.). The HL-60 human promyelocytic leukemia cell line, HCT116 human colorectal carcinoma cell line, H9c2 rat heart-derived myoblast cell line and 3T3 mouse embryo fibroblast line, were obtained from the American Type Culture Collection (VA, U.S.A.). Cells were cultured in Dulbecco's modified Eagle's medium (DMEM, Lonza, Switzerland) with or without (for MCF-7 cells only) phenol red, supplemented with 10% heat-inactivated fetal bovine serum (FBS; Lonza, Switzerland), 1% penicillin/streptomycin solution (Lonza, Switzerland) and 10 mM HEPES buffer (pH 7.0-7.6; Sigma-Aldrich, Germany). The HL-60 cell line was maintained in RPMI medium (Sigma-Aldrich, Germany) supplemented with 10% heat-inactivated FBS and 1% penicillin/streptomycin solution. All cell lines were cultured in 75 cm^2 tissue culture flasks (Switzerland) at 37°C in a humidified atmosphere of 5% CO2. Sub-confluent cells or, in the case of HL-60 cells, a cell suspension, were sub-cultured every 3-4 days.
(§2) Cells were seeded in 96-well plates for 24 h/37°C at a density of 5,000 (MCF-7), 10,000 (HL-60), 2,000 (HCT116) and 10,000 (3T3 and H9c2) cells/well. For 3T3 and H9c2 cells, the medium was changed to serum- and pyruvate-free DMEM 24 h prior to the experiments. Anti-proliferative and cytotoxicity effects of the compounds were studied at different concentrations after incubations for 72 h/37°C. Viabilities of cells were determined using MTT assays (Sigma-Aldrich, Germany) according to the manufacturer's instructions on a Tecan Infinite 200M plate reader (Tecan, Austria). The proliferation/viability of treated groups was expressed as a percentage of the untreated controls (100%).

Data set [2] concerns MCF-7 human breast adenocarcinoma cell line. Briefly: MTT proliferation/viability assay, MCF-7. The format is cell-based. The following applies: MCF7, 72 h/37°C, mean ± S.D. Here is the method: as §1, §2
The test system of data set [3] is HCT116 human colorectal carcinoma cell line. Briefly: MTT proliferation/viability assay, HCT116. Type of data set: cell-based. The following applies: HCT-116, 72 h/37°C, mean ± S.D. Here is the method:
as §1, §2

In data set [4] the test system is H9c2 rat heart-derived myoblast cell line. Briefly: MTT proliferation/viability assay, H9c2. The format is cell-based. To be noted: 72 h/37°C, mean ± S.D., serum- and pyruvate-free DMEM. Here is the method: as §1, §2
Data set [5] has as its system 3T3 mouse embryo fibroblast line. Briefly: MTT proliferation/viability assay, 3T3. The format is cell-based. The following applies: 72 h/37°C, mean ± S.D., serum- and pyruvate-free DMEM. How it is done:
as §1, §2

Data set [6] deals with cellular labile iron pools. Briefly: Fluorimetric calcein-AM assay of intracellular iron chelation. Type of data set: cell-based. To be noted: 10 μmol·L^−1. How it is done: (§3) Iron chelation efficiency of the compounds at a concentration of 10 μmol·L^−1 was determined via 3 methods: (1) the calcein assay; (2) the ability of the ligands to induce ^59Fe mobilization from cells prelabeled with ^59Fe-transferrin; and (3) the efficacy of these agents to inhibit the uptake of ^59Fe from ^59Fe-transferrin [22, 38–40].
(§4) The fluorimetric calcein-AM assay was performed by established methods, as described previously. The Fe chelation efficiency of the metabolites in cells was expressed as a percentage of that of the parent chelator, Dp44mT or DpC (100%). For studies assessing the ability of these agents to induce ^59Fe mobilization and inhibit ^59Fe uptake from ^59Fe-transferrin by cells, human transferrin (Sigma-Aldrich, Germany) was labeled with ^59Fe (PerkinElmer, MA, USA) to generate ^59Fe-transferrin at a final specific activity of 500 pCi/pmol Fe, as previously described. The unbound ^59Fe was removed by exhaustive vacuum dialysis against a large excess of 0.15 M NaCl buffered to pH 7.4 with 1.4% NaHCO3 by standard methods.

Data set [7] has as its system MCF-7 cells. Briefly: 59Fe mobilization from cells prelabeled with 59Fe-transferrin. To be noted: MCF-7 prelabeled with 59Fe-transferrin, compounds 25 μmol·L^−1, 3 h/37°C. Type of data set: cell-based, human. How it is done: as §3, §4
(§5) To examine the ability of the studied substances to mobilize ^59Fe from MCF-7 cells or inhibit ^59Fe uptake from ^59Fe-transferrin, established techniques were utilized. For ^59Fe mobilization studies, cells were preincubated with ^59Fe-transferrin (0.75 μmol·L^−1) for 3 h/37°C, washed 4 times at 4°C on ice, and then reincubated with control medium or control medium containing the compounds (25 μmol·L^−1) for 3 h/37°C. The release of ^59Fe from the cells into the overlying medium was then examined by collecting both the cells and overlying medium and assessing ^59Fe levels using a γ-counter. For studies examining the ability of the agents to inhibit ^59Fe uptake from ^59Fe-transferrin, cells were incubated for 3 h/37°C with ^59Fe-transferrin (0.75 μmol·L^−1) in the presence or absence of the agents (25 μmol·L^−1), and then washed 4 times at 4°C on ice. The internalization of ^59Fe by cells was then assessed by incubation for 30 min/4°C with the general protease, Pronase (1 mg/mL), utilizing standard techniques. The amount of internalized ^59Fe in the presence of the agents was expressed as a percentage of ^59Fe internalized by control cells incubated in the presence of control media alone.

For data set [8], the system named is MCF-7 cells. Briefly: Inhibition of internalized 59Fe uptake from 59Fe-transferrin. The following applies: MCF-7, compounds 25 μmol·L^−1, 3 h/37°C. The format is cell-based, human. How it is done: as §3, §4, §5
A short description of data set [9]: Pharmacokinetics after single i.v. administration to rats (plasma, UHPLC-MS/MS). Type of data set: in vivo, Wistar rats. How it is done: Male Wistar rats (230-310 g; n = 22) obtained from Velaz (Czech Republic) were kept in an air-conditioned room under a 12 h light-dark cycle, constant temperature and humidity and had free access to water and a standard laboratory pellet diet for rodents. All animal handling and procedures were approved and supervised by the Animal Welfare Body of the Faculty of Medicine in Hradec Kralove, Charles University in Prague. The investigation conformed to the Guide for the Care and Use of Laboratory Animals.
The rats were anaesthetized with pentobarbital (30 mg^.kg^−1; i.p.) and then the vena jugularis and arteria carotis were prepared for drug administration and blood sample collection, respectively. Both Dp44mT and DpC were dissolved in a mixture of saline, PEG 300 and ethanol (5:4:1, v/v/v) and administered to rats at a dose of 2 mg^.kg^−1, as a slow i.v. bolus. Blood was then collected into EDTA-containing tubes, immediately centrifuged and the plasma kept at −80°C until being analyzed. The blood withdrawn from animals was compensated with an appropriate volume of saline. The animals were sacrificed by pentobarbital overdose.
Initially, for both compounds, rats (n = 2, in each group) were used for the in-vivo investigation of the thiosemicarbazone metabolites and also the preparation of the quantitative analytical method. For the full PK study, 6 rats were used for each compound (group 1) and the blood was sampled at 4, 10, 30, 60, 120, 240 and 360 min post-administration.
Due to the markedly slower elimination of DpC, an additional in-vivo study was performed to appropriately describe the elimination phase of this drug. The conscious rats (n = 8, group 2) were administered DpC (2 mg^.kg^−1) via slow i.v. bolus to the vena saphena. Blood was sampled from the retro-orbital plexus under light ether anesthesia during the following time intervals: 120, 360, 600, 1440 and 1800 min. Plasma samples were treated and analyzed using the analytical methods described below in the Section: UHPLC-MS/MS methods for quantitative assay of the drugs and their metabolites.
Standard non-compartmental analysis was performed implementing Kinetica software (version 4.0, Thermo Fisher Scientific Inc., MA, U.S.A.). […] Maximum concentration (Cmax) and the time to maximum concentration (Tmax) were determined directly from the geometric mean vs. time profiles and from individual profiles. The area under the mean plasma concentration–time curve from zero up to the last sampling interval (AUC0-tlast) was calculated by a combination of the linear and log-linear trapezoidal methods. The area under the mean plasma concentration–time curve from zero up to infinity (AUC) was determined as the sum of the AUC0–tlast and of the extrapolated part (i.e., the ratio of the concentration predicted at the time interval of tlast and the terminal rate constant, λz). The λz was estimated by linear regression of the log transformed concentrations in the terminal part of the curve.
Population pharmacokinetic modeling was performed using non-linear, mixed effect modeling as implemented in Monolix, version 4 (http://wfn.software.monolix.org). Pharmacokinetic parameters were estimated by computing the maximum likelihood estimator of the parameters without any approximation of the model (no linearization). This was performed using the Stochastic Approximation Expectation Maximization (SAEM) algorithm combined with a Markov chain Monte Carlo procedure. The between-animal variability in model parameters were ascribed to an exponential model and a proportional model was used to describe the residual variability. The goodness-of-fit was assessed by using several diagnostic plots (observed and predicted concentrations vs. time; observed concentrations vs. population predictions; weighted residuals vs. time; and weighted residuals vs. predictions). Individual parameter values were obtained as empirical Bayes estimates. […]

Data set [10] is described as follows: Long-term stability in plasma samples at -80°C. The format is in vitro ADME, rat. To be noted: for Long-term stability: plasma, -80°C, 7 days. How it is done: (§6) The UHPLC-MS/MS methods for quantitative assays were validated with respect to selectivity, linearity, precision, accuracy, stability, recovery, matrix effects and dilution integrity (see […]
Linearity was examined over the concentration ranges described in Supplementary Table 1 using a weighted (1/x 2) linear regression in GraphPad Prism 6 (v. 6.04, GraphPad Software […]
(§7) Stability was assessed at low, medium and high concentration levels. Long -term stability was assessed for plasma samples at -80°C over a period of 7 days (three aliquots per level; Supplementary Table 3). […]

Data set [11] can be described thus: Post-preparative stability in the autosampler at 10°C. To be noted: for Post-preparative stability: autosampler 10°C, 24 h. Type of data set: physicochemical. Here is the method: as §6
Supplementary Table 1-3). […]
as §7

Setting [12] is: high concentration level (2.105-3.115 µmol·L-1).
Setting [13] is: low concentration level (0.035-0.156 µmol·L-1).
Setting [14] is: medium concentration level (0.702-1.558 µmol·L-1).

Regarding `O=C(c1ccccn1)c1ccccn1` [DpK, di(2-pyridyl)ketone], the IC50 in data set [1], in data set [2], in [3], in data set [4] and in data set [5] was more than 1000 µM each time. In addition, in data set [6], the “intracellular Fe chelation efficacy (in words)” value is “lower ability to bind intracellular Fe than their parent ligands”. Besides, in the data set with MCF-7 cells [7], the “59Fe mobilization (in words)” value was “no greater than the control”. Besides, in the data set with MCF-7 cells [8], the “inhibition of 59Fe uptake from 59Fe-transferrin (in words)” value is given as “did not have any significant (p>0.05) effect”.

`CN(C(=O)NN=C(c1ccccn1)c1ccccn1)C1CCCCC1` [DpC-S, di(2-pyridyl)ketone 4-cyclohexyl-4-methylsemicarbazone]: the IC50 in data set [1] amounted to 2.57 ± 0.33 µM; in data set [2] it was 3 ± 0.81 µM; in [3], 3.03 ± 0.91 µM; in data set [4], 5.59 ± 0.82 µM; in [5], 12.8 ± 2.87 µM. Also, the “intracellular Fe chelation efficacy (in words)” value in data set [6] is given as “lower ability to bind intracellular Fe than their parent ligands”. Further, the “59Fe mobilization (in words)” value in the data set on MCF-7 cells [7] is given as “comparable to DpC”. Besides, the “inhibition of 59Fe uptake from 59Fe-transferrin (in words)” value with MCF-7 cells [8] is “marked and similar to DpC”.

For the compound `CN(C)C(=O)NN=C(c1ccccn1)c1ccccn1` [Dp44mS, di(2-pyridyl)ketone 4,4-dimethylsemicarbazone], the IC50 in [1] worked out at 27.3 ± 3.56 µM; in data set [2], 29.4 ± 8.63 µM; in data set [3] it was 9.31 ± 1.58 µM; in [4] it was 367 ± 63.4 µM; in data set [5], 139 ± 28.9 µM. Also, the “intracellular Fe chelation efficacy (in words)” value in data set [6] is “lower ability to bind intracellular Fe than their parent ligands”. Further, the “59Fe mobilization (in words)” value in the data set on MCF-7 cells [7] was “approximately half as effective as Dp44mT”. Also, the “internalized 59Fe uptake from 59Fe-transferrin, % of the control” value in the data set with MCF-7 cells [8] turned out to be 64%.

Regarding `CNC(=S)NN=C(c1ccccn1)c1ccccn1` [Dp4mT, di(2-pyridyl)ketone 4-methyl-3-thiosemicarbazone], the Cmax in data set [9] (male, Wistar, rat, plasma, iv, 2 mg/kg, rats, i.v. 2 mg·kg^−1, non-compartmental analysis of geometric mean plasma curves, Dp4mT = metabolite after Dp44mT dosing, read-out: Cmax) was found to be 496 nM. The Tmax in data set [9] (male, Wistar, rat, plasma, iv, 2 mg/kg, rats, i.v. 2 mg·kg^−1, non-compartmental analysis, Dp4mT = metabolite after Dp44mT dosing, read-out: Tmax (converted)) was 0.167 h. In [9] (male, Wistar, rat, plasma, iv, 2 mg/kg, rats, i.v. 2 mg·kg^−1, non-compartmental analysis, read-out: AUC (zero to infinity)), the AUC(0-inf) came to 0.748 µM·h. Moreover, the half-life in data set [9] (male, Wistar, rat, plasma, iv, 2 mg/kg, rats, i.v. 2 mg·kg^−1, non-compartmental analysis, read-out: t1/2 (elimination half-life) (converted)) was 2 h. Also, the AUC(0-t) in data set [9] (male, Wistar, rat, plasma, iv, 2 mg/kg, read-out: AUC0-tlast) came out at 0.671 µM·h. In addition, the “lamdaz (terminal rate constant of elimination)” value in [9] (rats, i.v. 2 mg·kg^−1, non-compartmental analysis) amounted to 0.346 h⁻¹. For the same compound, the Long-term stability in [10] (setting [12]) stood at 90.82%; in [10] (setting [13]), 94.78%; in data set [10] (setting [14]) it was 90.83%. The “decomposition on storage (in words)” value in data set [10] (up to 7 days stored at −80°C) and in data set [11] (24 h storage in the autosampler at 10°C) was “No significant decomposition” each time. Also, the results for the Post-preparative stability in data set [11] (setting [12]), in data set [11] (setting [13]) and in data set [11] (setting [14]) were 95.44%, 100.24% and 111.72%, respectively.

For orientation: IC50 means the point on the concentration scale where inhibition reaches its midpoint. A higher IC50 goes with lower potency. Broadly, the Cmax is the peak of the concentration-time curve. One may read the Tmax as the time from dosing to the highest level.
